Relative viability data for seven cell lines are collected here from the supplement of paper PMC10307832.

Holding throughout (assay): relative viability (nuclei count vs DMSO), 5 days (fraction); higher = more cells survive
Compound in assay [1]: CC[C@@H]1C(=O)N(C)c2cnc(Nc3ccc(C(=O)NC4CCN(C)CC4)cc3OC)nc2N1C1CCCC1 [BI-2536] + Cc1nc(Nc2ncc(C(=O)Nc3c(C)cccc3Cl)s2)cc(N2CCN(CCO)CC2)n1 [Dasatinib] (partner 0.075 µM)
The method, boiled down: (§1)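 Medians of duplicate plates are given as relative viability. That measure is the nuclei count in treated wells divided by the count in vehicle wells. Counts were taken on 4× images of lung cancer cell lines in 1536-well plates, 5 days after pin-tool dosing the day after seeding with one drug alone or a fixed anchor-drug dose plus five library-drug doses (not always all listed) in √10 steps.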

Compound in assay [2]: CC[C@@H]1C(=O)N(C)c2cnc(Nc3ccc(C(=O)NC4CCN(C)CC4)cc3OC)nc2N1C1CCCC1 [BI-2536] + O=C(CCCCCCC(=O)Nc1ccccc1)NO [Vorinostat] (partner 1 µM)
The method in brief:
as §1

Compound in assay [3]: CC1CC(=O)N(C2=CN=C(N=C2N1C3CCCC3)NC4=C(C=C(C=C4)C(=O)NC5CCN(CC5)C)OC)C [NPK76-II-72-1] + O=C(CCCCCCC(=O)Nc1ccccc1)NO [Vorinostat] (partner 1 µM)
The method, boiled down:
as §1

Compound in assay [4]: CC[C@@H]1C(=O)N(C)c2cnc(Nc3ccc(C(=O)NC4CCN(C)CC4)cc3OC)nc2N1C1CCCC1 [BI-2536] + Nc1ncn([C@H]2C[C@H](O)[C@@H](CO)O2)c(=O)n1 [Decitabine] (partner 2 µM)
The method in brief:
as §1

Regarding H3255, the relative viability in assay [1] (first compound 0.01 µM) is 0.315; in assay [1] (first compound 0.03162 µM), 0.237; in assay [1] (first compound 0.1 µM), 0.235; in assay [1] (first compound 0.3162 µM), 0.27; in assay [1] (first compound 1 µM) it was 0.25; in assay [2] (first compound 0.01 µM), 0.736. Also, the relative viability stood at 0.786 in assay [2] (first compound 0.03162 µM); 0.447 in assay [2] (first compound 0.1 µM); 0.519 in assay [2] (first compound 0.3162 µM); 0.306 in assay [2] (first compound 1 µM); 0.873 in assay [3] (first compound 0.01 µM); 0.605 in assay [3] (first compound 0.03162 µM). Further, the relative viability in assay [3] (first compound 0.1 µM) turned out to be 0.722; in assay [3] (first compound 1 µM) it was 0.797; in assay [4] (first compound 0.01 µM) it was 0.565; in assay [4] (first compound 0.03162 µM), 0.374; in assay [4] (first compound 0.1 µM) it was 0.428; in assay [4] (first compound 0.3162 µM), 0.16. Further, the relative viability in assay [4] (first compound 1 µM) is 0.299.

As to NCI-H1993, the relative viability is 0.688 in assay [1] (first compound 0.01 µM); 0.577 in assay [1] (first compound 0.03162 µM); 0.51 in assay [1] (first compound 0.1 µM); 0.514 in assay [1] (first compound 0.3162 µM); 0.485 in assay [1] (first compound 1 µM); 0.665 in assay [2] (first compound 0.01 µM). Also, the relative viability in assay [2] (first compound 0.03162 µM) amounted to 0.425; in assay [2] (first compound 0.1 µM) it was 0.456; in assay [2] (first compound 0.3162 µM) it was 0.489; in assay [2] (first compound 1 µM), 0.416; in assay [3] (first compound 0.01 µM), 0.486; in assay [3] (first compound 0.03162 µM) it was 0.777. Besides, the relative viability came out at 0.784 in assay [3] (first compound 0.1 µM); 0.725 in assay [3] (first compound 0.3162 µM); 0.728 in assay [3] (first compound 1 µM); 0.61 in assay [4] (first compound 0.01 µM); 0.601 in assay [4] (first compound 0.03162 µM); 0.436 in assay [4] (first compound 0.1 µM). Further, the relative viability in assay [4] (first compound 0.3162 µM) turned out to be 0.42; in assay [4] (first compound 1 µM), 0.405.

NCI-H1734: the relative viability in assay [1] (first compound 0.01 µM) was determined as 0.439; in assay [1] (first compound 0.03162 µM), 0.462; in assay [1] (first compound 0.1 µM), 0.167; in assay [1] (first compound 0.3162 µM) it was 0.145; in assay [1] (first compound 1 µM) it was 0.131; in assay [2] (first compound 0.01 µM) it was 0.734. Further, the relative viability in assay [2] (first compound 0.03162 µM) stood at 0.543; in assay [2] (first compound 0.1 µM) it was 0.17; in assay [2] (first compound 0.3162 µM) it was 0.165; in assay [2] (first compound 1 µM), 0.169; in assay [3] (first compound 0.01 µM) it was 0.857; in assay [3] (first compound 0.03162 µM), 0.845. The relative viability came out at 0.779 in assay [3] (first compound 0.1 µM); 0.764 in assay [3] (first compound 0.3162 µM); 0.951 in assay [3] (first compound 1 µM); 0.5 in assay [4] (first compound 0.01 µM); 0.457 in assay [4] (first compound 0.03162 µM); 0.37 in assay [4] (first compound 0.1 µM). Moreover, the relative viability in assay [4] (first compound 0.3162 µM) is 0.157; in assay [4] (first compound 1 µM) it was 0.164.

As for HOP-62, the relative viability in assay [1] (first compound 0.01 µM) came to 0.618; in assay [1] (first compound 0.03162 µM), 0.665; in assay [1] (first compound 0.1 µM), 0.515; in assay [1] (first compound 0.3162 µM), 0.173; in assay [1] (first compound 1 µM), 0.167; in assay [2] (first compound 0.01 µM) it was 0.528. In addition, the relative viability in assay [2] (first compound 0.03162 µM) stood at 0.74; in assay [2] (first compound 0.1 µM) it was 0.188; in assay [2] (first compound 0.3162 µM) it was 0.104; in assay [2] (first compound 1 µM), 0.13; in assay [3] (first compound 0.01 µM), 0.618; in assay [3] (first compound 0.03162 µM) it was 0.767. For the same cell line, the relative viability in assay [3] (first compound 0.1 µM) worked out at 0.598; in assay [3] (first compound 0.3162 µM), 0.39; in assay [3] (first compound 1 µM), 0.713; in assay [4] (first compound 0.01 µM), 0.201; in assay [4] (first compound 0.03162 µM), 0.209; in assay [4] (first compound 0.1 µM), 0.231. Besides, the relative viability is 0.151 in assay [4] (first compound 0.3162 µM) and 0.142 in assay [4] (first compound 1 µM).

As to LOU-NH91, the relative viability was found to be 0.599 in assay [1] (first compound 0.01 µM); 0.539 in assay [1] (first compound 0.03162 µM); 0.52 in assay [1] (first compound 0.1 µM); 0.289 in assay [1] (first compound 0.3162 µM); 0.256 in assay [1] (first compound 1 µM); 0.915 in assay [2] (first compound 0.01 µM). In addition, the relative viability was found to be 0.865 in assay [2] (first compound 0.03162 µM); 0.443 in assay [2] (first compound 0.1 µM); 0.311 in assay [2] (first compound 0.3162 µM); 0.264 in assay [2] (first compound 1 µM); 0.89 in assay [3] (first compound 0.01 µM); 0.935 in assay [3] (first compound 0.03162 µM). Besides, the relative viability in assay [3] (first compound 0.1 µM) was determined as 0.763; in assay [3] (first compound 0.3162 µM), 0.814; in assay [3] (first compound 1 µM), 1.06; in assay [4] (first compound 0.01 µM) it was 0.816; in assay [4] (first compound 0.03162 µM) it was 0.685; in assay [4] (first compound 0.1 µM), 0.66. Moreover, the relative viability in assay [4] (first compound 0.3162 µM) turned out to be 0.343; in assay [4] (first compound 1 µM), 0.383.

Consider ChaGo-K-1, for which the relative viability in assay [1] (first compound 0.01 µM) worked out at 0.594; in assay [1] (first compound 0.03162 µM), 0.667; in assay [1] (first compound 0.1 µM), 0.446; in assay [1] (first compound 0.3162 µM) it was 0.194; in assay [1] (first compound 1 µM) it was 0.197; in assay [2] (first compound 0.01 µM), 0.764. The relative viability is 0.749 in assay [2] (first compound 0.03162 µM); 0.265 in assay [2] (first compound 0.1 µM); 0.182 in assay [2] (first compound 0.3162 µM); 0.196 in assay [2] (first compound 1 µM); 0.703 in assay [3] (first compound 0.01 µM); 0.735 in assay [3] (first compound 0.03162 µM). For the same cell line, the relative viability in assay [3] (first compound 0.1 µM) was determined as 0.809; in assay [3] (first compound 0.3162 µM), 0.687; in assay [3] (first compound 1 µM), 0.789; in assay [4] (first compound 0.01 µM) it was 0.524; in assay [4] (first compound 0.03162 µM) it was 0.402; in assay [4] (first compound 0.1 µM) it was 0.403. Further, the figures for the relative viability in assay [4] (first compound 0.3162 µM) and in assay [4] (first compound 1 µM) were 0.184 and 0.206, respectively.

For PC-14, the relative viability was 0.269 in assay [1] (first compound 0.01 µM); 0.0367 in assay [1] (first compound 0.1 µM); 0.0318 in assay [1] (first compound 0.3162 µM); 0.0158 in assay [1] (first compound 1 µM); 0.809 in assay [2] (first compound 0.01 µM); 0.387 in assay [2] (first compound 0.03162 µM). Also, the relative viability in assay [2] (first compound 0.1 µM) came to 0.0698; in assay [2] (first compound 0.3162 µM), 0.0322; in assay [2] (first compound 1 µM), 0.0218; in assay [3] (first compound 0.01 µM) it was 0.717; in assay [3] (first compound 0.03162 µM), 0.73; in assay [3] (first compound 0.1 µM), 0.684. The relative viability in assay [3] (first compound 0.3162 µM) stood at 0.698; in assay [3] (first compound 1 µM), 0.807; in assay [4] (first compound 0.01 µM) it was 0.227; in assay [4] (first compound 0.03162 µM), 0.172; in assay [4] (first compound 0.1 µM), 0.09; in assay [4] (first compound 0.3162 µM), 0.0445. Moreover, the relative viability in assay [4] (first compound 1 µM) was determined as 0.0408.
